In assay [1] the target is T1, human recombinant his-tagged HSP90α (Homo sapiens, UniProt P07900).
T1 construct: purchased Prospec Technogene #HSP90
As to the kind of experiment: HSP90 enzyme assay (HTRF, competition with biotinylated Geldanamycin). The format is binding. Particulars: for IC50: IC50 range, read-out: Enzyme Assay. The source says:
An HTRF (homogeneous time resolved fluorescence) assay is used to measure the interaction of the compounds with HSP90. The assay measures binding of biotinylated Geldanamycin (bio-GM; Biomol, #EI-341, lot: A9199a) to human recombinant his-tagged HSP90α (HSP90; Prospec Technogene, #HSP90, lot: 260HSP9001). A signal is generated by fluorescence resonance energy transfer from an Europium-cryptate labeled anti-his antibody (anti-his-K; Cisbio International, #61HISKLA, lot: 33V) via the HSP90-GM-biotin complex to a fluorescence acceptor (allophycocyanin) linked to streptavidin (SA-XL; Cisbio International, #610SAXLB, lot: 089).
Unlabeled GM or compounds compete with the bio-GM for binding to HSP90 resulting in reduced fluorescence energy transfer/assay signal.
A preformed (1 hour incubation) complex of HSP90 with the anti-his-K is added to the compound solution in a 384 well microplate (Corning, #3710) and incubated for 15 minutes. A preformed (1 hour incubation) complex of bio-GM with the SA-XL is added to the wells and incubated for 20 hours. All incubations are performed at room temperature. The final assay volume is 50 μl/well. The final concentrations in the assay are: 50 mM Hepes pH 7.3, 50 mM NaCl, 100 mM KF, 1 mM EDTA, 1 mM DTT, 0.1% Triton-X-100, […] HSP90, 40 nM SA-XL, 40 nM bio-GM. Test compounds are dissolved in DMSO, prediluted in assay buffer and tested at a final concentration between 5000 nM and 0.3 nM. The resulting DMSO concentration is 0.5% and included in all controls. High controls are without test compounds, low controls without test compounds, without HSP90 and without bio-GM. As a reference inhibitor unlabeled GM is used in the same concentrations as the test compounds.
Inhibition is calculated compared to the assay controls using an Excel spreadsheet (Microsoft). IC50 values are calculated by non-linear least squares fitting to the standard dose-response model using GraphPad Prism (GraphPad Software Inc).

Assay [2] concerns TNFα release from LPS stimulated THP-1 (hCE-1 +ve) cells. As to the kind of experiment: LPS-stimulation of THP-1 cells (TNF-α release). Particulars: Homo sapiens, THP-1; IC50 range; TNF-α after LPS 1 μg/ml, 6 hours; read-out: THP-1 Assay. It counts as cell-based, human. The protocol: THP-1 cells are plated in […] at a density of 4×10^4 cells/well in V-bottomed 96 well tissue culture treated plates and incubated at 37° C. in 5% CO2 for 16 hours. 2 Hours after the addition of the inhibitor in 100 μl of tissue culture media, the cells are stimulated with LPS (E. Coli strain 005:B5, Sigma) at a final concentration of 1 μg/ml and incubated at 37° C. in 5% CO2 for 6 hours. TNF-α levels are measured from cell-free supernatants by sandwich ELISA (R&D Systems #QTA00B).

This note sets out measurements from patent publication US9321718B2 (CHROMA THERAPEUTICS LTD., priority 2010, dated 2016).

With `CC(C)C[C@H](NC1CCN(C(=O)c2cc(C(C)C)c(O)cc2O)CC1)C(=O)OC(C)(C)C` [Example 6, tert-butyl N-(1-{[2,4-dihydroxy-5-(propan-2-yl)phenyl]carbonyl}piperidin-4-yl)-L-leucinate], the figures for the IC50 in assay [1] and in assay [2] were under 100 nM and over 1000 nM, respectively.

Consider `CC(C)C[C@H](NC1CCCN(C(=O)c2cc(C(C)C)c(O)cc2O)C1)C(=O)OC1CCCC1` (stereo partly drawn) [Example 7, cyclopentyl N-(1-{[2,4-dihydroxy-5-(propan-2-yl)phenyl]carbonyl}piperidin-3-yl)-L-leucinate], for which the IC50 in assay [1] was 100 to 1000 nM; in assay [2], over 1000 nM.

As to `CC(C)c1cc(C(=O)N2CCC(N[C@@H](C)C(=O)OC(C)(C)C)CC2)c(O)cc1O` [Example 8, tert-butyl N-(1-{[2,4-dihydroxy-5-(propan-2-yl)phenyl]carbonyl}piperidin-4-yl)-L-alaninate], the IC50 in assay [1] was under 100 nM; in assay [2], over 1000 nM.

Consider `CC(C)c1cc(C(=O)N2CCC(N[C@@H](COC(C)(C)C)C(=O)OC(C)(C)C)CC2)c(O)cc1O` [Example 11, tert-butyl O-tert-butyl-N-(1-{[2,4-dihydroxy-5-(propan-2-yl)phenyl]carbonyl}piperidin-4-yl)-L-serinate], for which the IC50 was under 100 nM in assay [1] and over 1000 nM in assay [2].

For `CC(C)C[C@@H](NC1CCN(C(=O)c2cc(C(C)C)c(O)cc2O)CC1)C(=O)OC1CCCC1` [Example 12, cyclopentyl N-(1-{[2,4-dihydroxy-5-(propan-2-yl)phenyl]carbonyl}piperidin-4-yl)-D-leucinate], the IC50 was under 100 nM in assay [1] and over 1000 nM in assay [2].

With `CC(C)c1cc(C(=O)N2CCC(N[C@H](C(=O)OC3CCCC3)C3CCCCC3)CC2)c(O)cc1O` [Example 14, cyclopentyl (2S)-cyclohexyl[(1-{[2,4-dihydroxy-5-(propan-2-yl)phenyl]carbonyl}piperidin-4-yl)amino]ethanoate], the IC50 in assay [1] was 100 to 1000 nM; in assay [2], over 1000 nM.

Take `CC(C)c1cc(C(=O)N2CCC(N[C@@H](Cc3ccccc3)C(=O)OC(C)(C)C)CC2)c(O)cc1O` [Example 16, tert-butyl N-(1-{[2,4-dihydroxy-5-(propan-2-yl)phenyl]carbonyl}piperidin-4-yl)-L-phenylalaninate]: the IC50 in assay [1] is under 100 nM; in assay [2], over 1000 nM.

For `CC(C)c1cc(C(=O)N2CCC(N[C@@H](CO)C(=O)OC3CCCC3)CC2)c(O)cc1O` [Example 18, cyclopentyl N-(1-{[2,4-dihydroxy-5-(propan-2-yl)phenyl]carbonyl}piperidin-4-yl)-L-serinate], the IC50 in assay [1] was under 100 nM; in assay [2], 100 to 1000 nM.

For the molecule `CC(C)C[C@@H](NC1CCN(C(=O)c2cc(C(C)C)c(O)cc2O)CC1)C(=O)OC(C)(C)C` [Example 19, tert-butyl N-(1-{[2,4-dihydroxy-5-(propan-2-yl)phenyl]carbonyl}piperidin-4-yl)-D-leucinate], the IC50 was under 100 nM in assay [1] and over 1000 nM in assay [2].

As to `CC(C)C[C@H](NCC1CCN(C(=O)c2cc(C(C)C)c(O)cc2O)CC1)C(=O)OC(C)(C)C` [Example 24, tert-butyl N-[(1-{[2,4-dihydroxy-5-(propan-2-yl)phenyl]carbonyl}piperidin-4-yl)methyl]-L-leucinate], the figures for the IC50 in assay [1] and in assay [2] were under 100 nM and over 1000 nM, respectively.

With `CC(C)c1cc(C(=O)N2CCC(CN[C@@H](Cc3ccccc3)C(=O)OC(C)(C)C)CC2)c(O)cc1O` [Example 25, tert-butyl N-[(1-{[2,4-dihydroxy-5-(propan-2-yl)phenyl]carbonyl}piperidin-4-yl)methyl]-L-phenylalaninate], the results for the IC50 in assay [1] and in assay [2] were under 100 nM and over 1000 nM, respectively.

`CC(C)c1cc(C(=O)N2CCC(CN[C@@H](C)C(=O)OC(C)(C)C)CC2)c(O)cc1O` [Example 26, tert-butyl N-[(1-{[2,4-dihydroxy-5-(propan-2-yl)phenyl]carbonyl}piperidin-4-yl)methyl]-L-alaninate]: the IC50 is under 100 nM in assay [1] and over 1000 nM in assay [2].

`CC(C)c1cc(C(=O)N2CCC(CN[C@H](C(=O)O)C(C)C)CC2)c(O)cc1O` [Example 112, N-[(1-{[2,4-dihydroxy-5-(propan-2-yl)phenyl]carbonyl}piperidin-4-yl)methyl]-L-valine]: in assay [1], the IC50 was under 100 nM.

Regarding `CC(C)c1cc(C(=O)N2CCC(N[C@H](C(=O)O)C3CCCCC3)CC2)c(O)cc1O` [Example 113], the IC50 in assay [1] was under 100 nM.

As for `CC(C)c1cc(C(=O)N2CCC(CCN[C@@H](COC(C)(C)C)C(=O)O)CC2)c(O)cc1O` [Example 115, O-tert-butyl-N-[2-(1-{[2,4-dihydroxy-5-(propan-2-yl)phenyl]carbonyl}piperidin-4-yl)ethyl]-L-serine], the IC50 in assay [1] is under 100 nM.

`CC(C)c1cc(C(=O)N2CCC(CN[C@H](C(=O)O)C3CCCCC3)CC2)c(O)cc1O` [Example 116, (2S)-cyclohexyl{[(1-{[2,4-dihydroxy-5-(propan-2-yl)phenyl]carbonyl}piperidin-4-yl)methyl]amino}ethanoic acid]: the IC50 in assay [1] was under 100 nM.

Turning to `CC(C)c1cc(C(=O)N2CCC(CNC(C)(C)C(=O)O)CC2)c(O)cc1O` [Example 117, N-[(1-{[2,4-dihydroxy-5-(propan-2-yl)phenyl]carbonyl}piperidin-4-yl)methyl]-2-methylalanine], the IC50 in assay [1] is under 100 nM.

With `CC(C)c1cc(C(=O)N2CCC(CN[C@@H](CO)C(=O)O)CC2)c(O)cc1O` [Example 118, N-[(1-{[2,4-dihydroxy-5-(propan-2-yl)phenyl]carbonyl}piperidin-4-yl)methyl]-L-serine], the IC50 in assay [1] is under 100 nM.

For the molecule `CC(C)c1cc(C(=O)N2CCC(CN[C@@H](COC(C)(C)C)C(=O)O)CC2)c(O)cc1O` [Example 119], the IC50 in assay [1] was under 100 nM.

On to `CC(C)c1cc(C(=O)N2CCC(CN[C@H](C(=O)O)c3ccccc3)CC2)c(O)cc1O` [Example 120, (2S)-{[(1-{[2,4-dihydroxy-5-(propan-2-yl)phenyl]carbonyl}piperidin-4-yl)methyl]amino}(phenyl)ethanoic acid], for which, in assay [1], the IC50 is under 100 nM.

Take `CC(C)c1cc(C(=O)N2CCC(CCN[C@H](C(=O)O)C(C)C)CC2)c(O)cc1O` [Example 121, N-[2-(1-{[2,4-dihydroxy-5-(propan-2-yl)phenyl]carbonyl}piperidin-4-yl)ethyl]-L-valine]: the IC50 in assay [1] was under 100 nM.

Regarding `CC(C)c1cc(C(=O)N2CCC(N[C@@H](COC(C)(C)C)C(=O)O)CC2)c(O)cc1O` [Example 122, O-tert-butyl-N-(1-{[2,4-dihydroxy-5-(propan-2-yl)phenyl]carbonyl}piperidin-4-yl)-L-serine], the IC50 in assay [1] was under 100 nM. Moreover, in assay [1] (in words, relative to non-ester parent CHR-7310), the “IC50 in the Hsp90 binding assay compared with CHR-7310” value is “similar”.

In the case of `CC(C)c1cc(C(=O)N2CCC(CCN[C@H](C(=O)O)C3CCCCC3)CC2)c(O)cc1O` [Example 123, (2S)-cyclohexyl{[2-(1-{[2,4-dihydroxy-5-(propan-2-yl)phenyl]carbonyl}piperidin-4-yl)ethyl]amino}ethanoic acid], the IC50 in assay [1] was under 100 nM.

As for `CC(C)c1cc(C(=O)N2CCC(CCN[C@H](C(=O)O)c3ccccc3)CC2)c(O)cc1O` [Example 124, (2S)-{[2-(1-{[2,4-dihydroxy-5-(propan-2-yl)phenyl]carbonyl}piperidin-4-yl)ethyl]amino}(phenyl)ethanoic acid], the IC50 in assay [1] is under 100 nM.

As to `CC(C)c1cc(C(=O)N2CCC(N[C@@H](CO)C(=O)O)CC2)c(O)cc1O` [Example 125, N-(1-{[2,4-dihydroxy-5-(propan-2-yl)phenyl]carbonyl}piperidin-4-yl)-L-serine], the IC50 in assay [1] was under 100 nM.

With “N-[2-(1-{[2,4-dihydroxy-5-(propan-2-yl)phenyl]carbonyl}piperidin-4-yl)ethyl]-2-methylalanine [Example 114]”, in assay [1], the IC50 is under 100 nM.

Turning to “N-{3-[(1-{[2,4-dihydroxy-5-(propan-2-yl)phenyl]carbonyl}piperidin-4-yl)amino]propyl}-L-leucine [Example 127]”, in assay [1], the IC50 was under 100 nM.

Consider “tert-butyl N-[2-(1-{[2,4-dihydroxy-5-(propan-2-yl)phenyl]carbonyl}piperidin-4-yl)ethyl]-L-serinate [Example 52]”, for which, in assay [1], the IC50 is under 100 nM.
